Reference: ChEMBL document CHEMBL1139602, “Biological evaluation of Tyr6 and Ser7 modified drosocin analogues” (2005)
Converted amounts (≈) assume the structure as drawn. Square brackets hold non-standard residues; d marks the D form. Peptide text beside a SMILES is read from it. Ava = NCCCCC(=O)O; GABA = NCCCC(=O)O; βAla = NCCC(=O)O

Columns and labels:
Escherichia coli = assay: Minimum inhibitory concentration against Escherichia coli ATCC 11775 strain; format: functional
Cell line = assay: Percent of intact peptide after 8 hr of digestion in 25% human serum; format: functional

MIC (Escherichia coli) [µM]	Compound	Intact (Cell line) [%]
6.3 (≈ 13.8 µg/mL)	CC[C@H](C)[C@H](NC(=O)[C@@H]1CCCN1C(=O)[C@H](CCCN=C(N)N)NC(=O)[C@@H]1CCCN1C(=O)[C@H](Cc1c[nH]cn1)NC(=O)[C@H](CO)NC(=O)[C@@H](NC(=O)[C@@H]1CCCN1C(=O)[C@H](CCCN=C(N)N)NC(=O)[C@@H]1CCCN1C(=O)[C@H](CO)NC(=O)[C@@H](Cc1ccc(O)cc1)NC(=O)[C@@H]1CCCN1C(=O)[C@H](CCCN=C(N)N)NC(=O)[C@@H]1CCCN1C(=O)[C@H](CCCCN)NC(=O)CN)[C@@H](C)O)C(=O)N[C@@H](CCCN=C(N)N)C(=O)N[C@H](C=O)C(C)C	16
3.1 (≈ 6.81 µg/mL)	CC[C@H](C)[C@H](NC(=O)[C@@H]1CCCN1C(=O)[C@H](CCCN=C(N)N)NC(=O)[C@@H]1CCCN1C(=O)[C@H](Cc1c[nH]cn1)NC(=O)[C@H](CO)NC(=O)[C@@H](NC(=O)[C@@H]1CCCN1C(=O)[C@H](CCCN=C(N)N)NC(=O)[C@@H]1CCCN1C(=O)[C@H](CO)NC(=O)C[C@@H](Cc1ccc(O)cc1)NC(=O)[C@@H]1CCCN1C(=O)[C@H](CCCN=C(N)N)NC(=O)[C@@H]1CCCN1C(=O)[C@H](CCCCN)NC(=O)CN)[C@@H](C)O)C(=O)N[C@@H](CCCN=C(N)N)C(=O)N[C@H](C=O)C(C)C	2
25 (≈ 54.6 µg/mL)	CC[C@H](C)[C@H](NC(=O)[C@@H]1CCCN1C(=O)[C@H](CCCN=C(N)N)NC(=O)[C@@H]1CCCN1C(=O)[C@H](Cc1c[nH]cn1)NC(=O)[C@H](CO)NC(=O)[C@@H](NC(=O)[C@@H]1CCCN1C(=O)[C@H](CCCN=C(N)N)NC(=O)[C@@H]1CCCN1C(=O)[C@@H](CO)NC(=O)[C@@H](Cc1ccc(O)cc1)NC(=O)[C@@H]1CCCN1C(=O)[C@H](CCCN=C(N)N)NC(=O)[C@@H]1CCCN1C(=O)[C@H](CCCCN)NC(=O)CN)[C@@H](C)O)C(=O)N[C@@H](CCCN=C(N)N)C(=O)N[C@H](C=O)C(C)C	17
> 100	CC[C@H](C)[C@H](NC(=O)CNC(=O)[C@H](Cc1ccc(O)cc1)NC(=O)[C@H](CC(=O)O)NC(=O)[C@@H](NC(=O)[C@H](CO)NC(=O)CNC(=O)[C@H](CC(=O)O)NC(=O)[C@@H](NC(=O)[C@@H](N)CC(N)=O)[C@@H](C)O)[C@@H](C)O)C(=O)N[C@@H](CC(C)C)C(=O)N[C@@H](CCC(N)=O)C(=O)N[C@H](C(=O)N[C@@H](CC(N)=O)C(=O)N[C@@H](CO)C(=O)N[C@H](C=O)CCCN=C(N)N)[C@@H](C)CC	–
3.1 (≈ 6.77 µg/mL)	CC[C@H](C)[C@H](NC(=O)[C@@H]1CCCN1C(=O)[C@H](CCCN=C(N)N)NC(=O)[C@@H]1CCCN1C(=O)[C@H](Cc1c[nH]cn1)NC(=O)[C@H](CO)NC(=O)[C@@H](NC(=O)[C@@H]1CCCN1C(=O)[C@H](CCCN=C(N)N)NC(=O)[C@@H]1CCCN1C(=O)[C@@H](CO)NC(=O)[C@H](Cc1ccc(O)cc1)NC(=O)[C@@H]1CCCN1C(=O)[C@H](CCCN=C(N)N)NC(=O)[C@@H]1CCCN1C(=O)[C@H](CCCCN)NC(=O)CN)[C@@H](C)O)C(=O)N[C@@H](CCCN=C(N)N)C(=O)N[C@H](C=O)C(C)C	1
3.1 (≈ 6.81 µg/mL)	CC[C@H](C)[C@H](NC(=O)[C@@H]1CCCN1C(=O)[C@H](CCCN=C(N)N)NC(=O)[C@@H]1CCCN1C(=O)[C@H](Cc1c[nH]cn1)NC(=O)[C@H](CO)NC(=O)[C@@H](NC(=O)[C@@H]1CCCN1C(=O)[C@H](CCCN=C(N)N)NC(=O)[C@@H]1CCCN1C(=O)C[C@@H](CO)NC(=O)[C@H](Cc1ccc(O)cc1)NC(=O)[C@@H]1CCCN1C(=O)[C@H](CCCN=C(N)N)NC(=O)[C@@H]1CCCN1C(=O)[C@H](CCCCN)NC(=O)CN)[C@@H](C)O)C(=O)N[C@@H](CCCN=C(N)N)C(=O)N[C@H](C=O)C(C)C	31
3.1 (≈ 6.72 µg/mL)	CC[C@H](C)[C@H](NC(=O)[C@@H]1CCCN1C(=O)[C@H](CCCN=C(N)N)NC(=O)[C@@H]1CCCN1C(=O)[C@H](Cc1c[nH]cn1)NC(=O)[C@H](CO)NC(=O)[C@@H](NC(=O)[C@@H]1CCCN1C(=O)[C@H](CCCN=C(N)N)NC(=O)[C@@H]1CCCN1C(=O)[C@H](CO)NC(=O)[C@H](Cc1ccccc1)NC(=O)[C@@H]1CCCN1C(=O)[C@H](CCCN=C(N)N)NC(=O)[C@@H]1CCCN1C(=O)[C@H](CCCCN)NC(=O)CN)[C@@H](C)O)C(=O)N[C@@H](CCCN=C(N)N)C(=O)N[C@H](C=O)C(C)C (H-GKPRPFSPRPTSHPRPIRV-aldehyde)	19
3.1 (≈ 6.76 µg/mL)	CC[C@H](C)[C@H](NC(=O)[C@@H]1CCCN1C(=O)[C@H](CCCN=C(N)N)NC(=O)[C@@H]1CCCN1C(=O)[C@H](Cc1c[nH]cn1)NC(=O)[C@H](CO)NC(=O)[C@@H](NC(=O)[C@@H]1CCCN1C(=O)[C@H](CCCN=C(N)N)NC(=O)[C@@H]1CCCN1C(=O)[C@@H](NC(=O)[C@H](Cc1ccccc1)NC(=O)[C@@H]1CCCN1C(=O)[C@H](CCCN=C(N)N)NC(=O)[C@@H]1CCCN1C(=O)[C@H](CCCCN)NC(=O)CN)[C@@H](C)O)[C@@H](C)O)C(=O)N[C@@H](CCCN=C(N)N)C(=O)N[C@H](C=O)C(C)C (H-GKPRPFTPRPTSHPRPIRV-aldehyde)	26
25 (≈ 54.9 µg/mL)	CC[C@H](C)[C@H](NC(=O)[C@@H]1CCCN1C(=O)[C@H](CCCN=C(N)N)NC(=O)[C@@H]1CCCN1C(=O)[C@H](Cc1c[nH]cn1)NC(=O)[C@H](CO)NC(=O)[C@@H](NC(=O)[C@@H]1CCCN1C(=O)[C@H](CCCN=C(N)N)NC(=O)[C@@H]1CCCN1C(=O)[C@H](COC)NC(=O)[C@H](Cc1ccc(O)cc1)NC(=O)[C@@H]1CCCN1C(=O)[C@H](CCCN=C(N)N)NC(=O)[C@@H]1CCCN1C(=O)[C@H](CCCCN)NC(=O)CN)[C@@H](C)O)C(=O)N[C@@H](CCCN=C(N)N)C(=O)N[C@H](C=O)C(C)C (H-GKPRPYS(Me)PRPTSHPRPIRV-aldehyde)	11
1.6 (≈ 3.51 µg/mL)	CC[C@H](C)[C@H](NC(=O)[C@@H]1CCCN1C(=O)[C@H](CCCN=C(N)N)NC(=O)[C@@H]1CCCN1C(=O)[C@H](Cc1c[nH]cn1)NC(=O)[C@H](CO)NC(=O)[C@@H](NC(=O)[C@@H]1CCCN1C(=O)[C@H](CCCN=C(N)N)NC(=O)[C@@H]1CCCN1C(=O)[C@@H](NC(=O)[C@H](Cc1ccc(O)cc1)NC(=O)[C@@H]1CCCN1C(=O)[C@H](CCCN=C(N)N)NC(=O)[C@@H]1CCCN1C(=O)[C@H](CCCCN)NC(=O)CN)[C@@H](C)O)[C@@H](C)O)C(=O)N[C@@H](CCCN=C(N)N)C(=O)N[C@H](C=O)C(C)C (H-GKPRPYTPRPTSHPRPIRV-aldehyde)	15
12.5 (≈ 27.4 µg/mL)	CC[C@H](C)[C@H](NC(=O)[C@@H]1CCCN1C(=O)[C@H](CCCN=C(N)N)NC(=O)[C@@H]1CCCN1C(=O)[C@H](Cc1c[nH]cn1)NC(=O)[C@H](CO)NC(=O)[C@@H](NC(=O)[C@@H]1CCCN1C(=O)[C@H](CCCN=C(N)N)NC(=O)[C@@H]1CCCN1C(=O)[C@@H](NC(=O)[C@H](Cc1ccc(O)cc1)NC(=O)[C@@H]1CCCN1C(=O)[C@H](CCCN=C(N)N)NC(=O)[C@@H]1CCCN1C(=O)[C@H](CCCCN)NC(=O)CN)C(C)C)[C@@H](C)O)C(=O)N[C@@H](CCCN=C(N)N)C(=O)N[C@H](C=O)C(C)C (H-GKPRPYVPRPTSHPRPIRV-aldehyde)	–
6.3 (≈ 14.2 µg/mL)	CC[C@H](C)[C@H](NC(=O)[C@@H]1CCCN1C(=O)[C@H](CCCN=C(N)N)NC(=O)[C@@H]1CCCN1C(=O)[C@H](Cc1c[nH]cn1)NC(=O)[C@H](CO)NC(=O)[C@@H](NC(=O)[C@@H]1CCCN1C(=O)[C@H](CCCN=C(N)N)NC(=O)[C@@H]1CCCN1C(=O)[C@@H](NC(=O)[C@H](Cc1ccc(O)cc1)NC(=O)[C@@H]1CCCN1C(=O)[C@H](CCCN=C(N)N)NC(=O)[C@@H]1CCCN1C(=O)[C@H](CCCCN)NC(=O)CCCCN)[C@@H](C)O)[C@@H](C)O)C(=O)N[C@@H](CCCN=C(N)N)C(=O)N[C@H](C(=O)O)C(C)C (H-[Ava]KPRPYTPRPTSHPRPIRV-OH)	84
6.3 (≈ 14 µg/mL)	CC[C@H](C)[C@H](NC(=O)[C@@H]1CCCN1C(=O)[C@H](CCCN=C(N)N)NC(=O)[C@@H]1CCCN1C(=O)[C@H](Cc1c[nH]cn1)NC(=O)[C@H](CO)NC(=O)[C@@H](NC(=O)[C@@H]1CCCN1C(=O)[C@H](CCCN=C(N)N)NC(=O)[C@@H]1CCCN1C(=O)[C@@H](NC(=O)[C@H](Cc1ccc(O)cc1)NC(=O)[C@@H]1CCCN1C(=O)[C@H](CCCN=C(N)N)NC(=O)[C@@H]1CCCN1C(=O)[C@H](CCCCN)NC(=O)CCCN)C(C)C)[C@@H](C)O)C(=O)N[C@@H](CCCN=C(N)N)C(=O)N[C@H](C=O)C(C)C (H-[GABA]KPRPYVPRPTSHPRPIRV-aldehyde)	76
3.1 (≈ 6.9 µg/mL)	CC[C@H](C)[C@H](NC(=O)[C@@H]1CCCN1C(=O)[C@H](CCCN=C(N)N)NC(=O)[C@@H]1CCCN1C(=O)[C@H](Cc1c[nH]cn1)NC(=O)[C@H](CO)NC(=O)[C@@H](NC(=O)[C@@H]1CCCN1C(=O)[C@H](CCCN=C(N)N)NC(=O)[C@@H]1CCCN1C(=O)[C@@H](NC(=O)[C@H](Cc1ccc(O)cc1)NC(=O)[C@@H]1CCCN1C(=O)[C@H](CCCN=C(N)N)NC(=O)[C@@H]1CCCN1C(=O)[C@H](CCCCN)NC(=O)CCN)[C@@H](C)O)[C@@H](C)O)C(=O)N[C@@H](CCCN=C(N)N)C(=O)N[C@H](C(=O)O)C(C)C (H-[βAla]KPRPYTPRPTSHPRPIRV-OH)	87
6.3	H-GKPRPYSPRPTSHPRPIRV-OH [DROSOCIN]	3
